Measured values as given in PubChem BioAssay AID330 (DTP/NCI, 2004).
Values joined by “and” are separate entries in the source; they are usually repeats but may differ in a detail not shown here. Equal values may be shown once. Toxic doses and inconclusive results are not listed.

Test system: P388 leukemia ip, CD2F1 mice, survival T/C
Experiment: NCI In Vivo Anticancer Drug Screen. Data for tumor model P388 Leukemia (intraperitoneal) in CD2F1 (CDF1) mice
Conditions: endpoint: median survival time, higher = longer survival
Procedure, shortened: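 Mice carrying the transplanted tumor received test compound or vehicle. Survival was recorded in each group, and the value is the treated-group measurement divided by that of the vehicle-treated control group.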

[1] = dose: 50.0 mg/kg/injection, schedule: Q01DX005 (ip), vehicle: Klucel (hydroxypropylcellulose) (HPC)
[2] = dose: 100.0 mg/kg/injection, schedule: Q01DX005 (ip), vehicle: Klucel (hydroxypropylcellulose) (HPC)
[3] = dose: 200.0 mg/kg/injection, schedule: Q01DX005 (ip), vehicle: Klucel (hydroxypropylcellulose) (HPC)
[4] = dose: 50.0 mg/kg/injection, schedule: Q01DX009 (ip), vehicle: saline
[5] = dose: 100.0 mg/kg/injection, schedule: Q01DX009 (ip), vehicle: saline with Tween-80
[6] = dose: 200.0 mg/kg/injection, schedule: Q01DX009 (ip), vehicle: saline with Tween-80
[7] = dose: 50.0 mg/kg/injection, schedule: Q04DX003 (ip), vehicle: Klucel (hydroxypropylcellulose) (HPC)

SMILES: c1cc2cc(c1)CSCCCSCc1cccc(c1)CSCCCSC2
- T/C (dose: 50.0 mg/kg/injection, schedule: Q04DX002 (ip), vehicle: saline): 103 % of control
- T/C (dose: 100.0 mg/kg/injection, schedule: Q04DX002 (ip), vehicle: saline): 105 % of control
- T/C (dose: 200.0 mg/kg/injection, schedule: Q04DX002 (ip), vehicle: saline): 100 % of control

SMILES: Nc1ccc(O)c2c1C(=O)c1c(O)ccc(N)c1C2=O
- T/C [1]: 100 % of control
- T/C [2]: 105 % of control
- T/C [3]: 87 % of control

SMILES: Nc1nc(F)nc2c1ncn2C1OC(CO)C(O)C1O (stereo unspecified)
- T/C (dose: 53.0 mg/kg/injection, schedule: Q03HX024 (ip), vehicle: saline with Tween-80): 253 % of control
- T/C (dose: 80.0 mg/kg/injection, schedule: Q03HX024 (ip), vehicle: saline with Tween-80): 283 % of control
- T/C (dose: 120.0 mg/kg/injection, schedule: Q03HX024 (ip), vehicle: saline with Tween-80): 123 % of control

SMILES: COc1ccccc1C1(O)c2ccccc2C(=O)c2ccccc21
- T/C [1]: 101 % of control
- T/C [2]: 99 % of control
- T/C [3]: 103 % of control

SMILES: C(C#CCN1CCOCC1)#CCN1CCOCC1
- T/C (dose: 50.0 mg/kg/injection, schedule: Q01DX009 (ip), vehicle: Klucel (hydroxypropylcellulose) (HPC)): 109 % of control and 89 % of control
- T/C (dose: 100.0 mg/kg/injection, schedule: Q01DX009 (ip), vehicle: Klucel (hydroxypropylcellulose) (HPC)): 101 % of control and 89 % of control
- T/C (dose: 200.0 mg/kg/injection, schedule: Q01DX009 (ip), vehicle: Klucel (hydroxypropylcellulose) (HPC)): 101 % of control and 93 % of control
- T/C (dose: 400.0 mg/kg/injection, schedule: Q01DX009 (ip), vehicle: Klucel (hydroxypropylcellulose) (HPC)): 98 % of control

SMILES: CC1(C)OCC2OCOC(C3CC(=O)NC(=O)C3)C2O1 (stereo unspecified)
- T/C (dose: 100.0 mg/kg/injection, schedule: Q04DX002 (ip), vehicle: suspension in saline): 102 % of control
- T/C (dose: 200.0 mg/kg/injection, schedule: Q04DX002 (ip), vehicle: suspension in saline): 100 % of control
- T/C (dose: 400.0 mg/kg/injection, schedule: Q04DX002 (ip), vehicle: suspension in saline): 102 % of control

SMILES: NNc1nccnc1Cl
- T/C (dose: 50.0 mg/kg/injection, schedule: Q01DX001 (ip), vehicle: saline with Tween-80): 102 % of control
- T/C (dose: 100.0 mg/kg/injection, schedule: Q01DX001 (ip), vehicle: saline with Tween-80): 97 % of control
- T/C (dose: 200.0 mg/kg/injection, schedule: Q01DX001 (ip), vehicle: saline with Tween-80): 108 % of control

SMILES: Nc1ccc2cc3ccc(N)cc3nc2c1
- T/C (dose: 12.5 mg/kg/injection, schedule: Q01DX009 (ip), vehicle: saline): 122 % of control
- T/C (dose: 15.0 mg/kg/injection, schedule: Q01DX005 (ip), vehicle: saline): 109 % of control
- T/C [4]: 95 % of control
- T/C (dose: 50.0 mg/kg/injection, schedule: Q04DX003 (ip), vehicle: saline): 86 % of control

SMILES: CCC(C(=O)c1ccccc1)C1(C(=O)OC)NC(=S)NC(=O)C1C#N (stereo unspecified)
- T/C (dose: 60.0 mg/kg/injection, schedule: Q01DX005 (ip), vehicle: saline): 95 % of control
- T/C (dose: 120.0 mg/kg/injection, schedule: Q01DX005 (ip), vehicle: saline): 95 % of control
- T/C (dose: 240.0 mg/kg/injection, schedule: Q01DX005 (ip), vehicle: saline): 100 % of control

SMILES: CCO/C=C1\SC(=S)N(c2cccc(OC)c2)C1=O
- T/C [5]: 118 % of control
- T/C (dose: 117.0 mg/kg/injection, schedule: Q04DX003 (ip), vehicle: saline with Tween-80): 113 % of control
- T/C (dose: 178.0 mg/kg/injection, schedule: Q04DX003 (ip), vehicle: saline with Tween-80): 118 % of control
- T/C [6]: 118 % of control
- T/C (dose: 266.0 mg/kg/injection, schedule: Q04DX003 (ip), vehicle: saline with Tween-80): 109 % of control

SMILES: COc1cc2c(cc1OC)C1C(O)C(OC)C(O)C3=CCN(C2)C31 (stereo unspecified)
- T/C [4]: 100 % of control
- T/C (dose: 100.0 mg/kg/injection, schedule: Q01DX009 (ip), vehicle: saline): 104 % of control
- T/C (dose: 200.0 mg/kg/injection, schedule: Q01DX009 (ip), vehicle: saline): 102 % of control

SMILES: CC1=CC(=C2C=CC(=[N+](C)C)C=C2)C=C(C)S1
- T/C (dose: 3.12 mg/kg/injection, schedule: Q01DX009 (ip), vehicle: distilled water + Tween-80 + alcohol): 109 % of control
- T/C (dose: 6.25 mg/kg/injection, schedule: Q01DX009 (ip), vehicle: distilled water + Tween-80 + alcohol): 119 % of control
- T/C (dose: 12.5 mg/kg/injection, schedule: Q01DX009 (ip), vehicle: distilled water + Tween-80 + alcohol): 120 % of control

SMILES: N#CN=[N+]([O-])c1cccc(Br)c1
- T/C (dose: 6.25 mg/kg/injection, schedule: Q04DX003 (ip), vehicle: Klucel (hydroxypropylcellulose) (HPC)): 102 % of control
- T/C (dose: 12.5 mg/kg/injection, schedule: Q04DX003 (ip), vehicle: Klucel (hydroxypropylcellulose) (HPC)): 101 % of control
- T/C (dose: 25.0 mg/kg/injection, schedule: Q04DX003 (ip), vehicle: Klucel (hydroxypropylcellulose) (HPC)): 105 % of control
- T/C [7]: 100 % of control

SMILES: CN(C)c1ccc(/C=C\c2cccc[n+]2C)cc1
- T/C (dose: 0.39 mg/kg/injection, schedule: Q01DX009 (ip), vehicle: saline): 99 % of control and 100 % of control
- T/C (dose: 0.78 mg/kg/injection, schedule: Q01DX009 (ip), vehicle: saline): 100 % of control and 106 % of control
- T/C (dose: 1.56 mg/kg/injection, schedule: Q01DX009 (ip), vehicle: saline): 100 % of control and 105 % of control
- T/C (dose: 3.12 mg/kg/injection, schedule: Q01DX009 (ip), vehicle: saline): 109 % of control and 114 % of control

SMILES: Cc1nn(-c2ccccc2)c(N)c1C#N
- T/C [7]: 104 % of control
- T/C (dose: 100.0 mg/kg/injection, schedule: Q04DX003 (ip), vehicle: Klucel (hydroxypropylcellulose) (HPC)): 107 % of control
- T/C (dose: 200.0 mg/kg/injection, schedule: Q04DX003 (ip), vehicle: Klucel (hydroxypropylcellulose) (HPC)): 106 % of control
- T/C (dose: 400.0 mg/kg/injection, schedule: Q04DX003 (ip), vehicle: Klucel (hydroxypropylcellulose) (HPC)): 104 % of control

SMILES: O=c1nc(N2CCCC2)oc2cc3ccccc3cc12
- T/C (dose: 60.0 mg/kg/injection, schedule: Q01DX005 (ip), vehicle: Klucel (hydroxypropylcellulose) (HPC)): 95 % of control
- T/C (dose: 120.0 mg/kg/injection, schedule: Q01DX005 (ip), vehicle: Klucel (hydroxypropylcellulose) (HPC)): 98 % of control
- T/C (dose: 240.0 mg/kg/injection, schedule: Q01DX005 (ip), vehicle: Klucel (hydroxypropylcellulose) (HPC)): 95 % of control

SMILES: COc1ccc(C=Nc2ccccc2)cc1
- T/C [5]: 100 % of control
- T/C [6]: 118 % of control
- T/C (dose: 400.0 mg/kg/injection, schedule: Q01DX009 (ip), vehicle: saline with Tween-80): 118 % of control

SMILES: Cc1nnc2c3c4c(sc3nc(C)n12)CCCC4
- T/C [1]: 94 % of control
- T/C [2]: 98 % of control
- T/C [3]: 104 % of control
